Results on 21 compounds are retold here after US11207283B2 (priority 2016, dated 2021).

Assay [1] has as its system Type I T. gondii tachyzoites. The assay can be described thus: Effect of TgOAT inactivators on T. gondii in vitro (YFP RH tachyzoites in HFF). The assay is classed as cell-based, Toxoplasma gondii. The conditions noted are these: HFF host cells, 72 hours, tested into the millimolar range. How it is done:
HFFs were grown to confluence in black, flat-bottomed 96-well microplates. […] Control triplicates with only fibroblasts and with pyrimethamine and sulfadiazine (the current standard of treatment of T. gondii infection) were also conducted. The cells and parasites were then incubated at 37° C. for 72 hours. Fluorescence was measured using a Bio-Tek Synergy™ H4 Hybrid Multi-Mode Microplate Reader.

The subject of assay [2] is P. falciparum parasite, D6 (Sierra Leone). Kind of assay: Malaria SYBR Green I-based fluorescence (MSF) assay. It is filed as cell-based, Plasmodium falciparum. Particulars: concentrations up to 10000 ng/mL, data not shown.
For the next assay, the system named is TgOAT. Particulars: for selectivity of inactivation, TgOAT versus GABA-AT and human OAT (in words): compared with literature data on GABA-AT and human OAT; for KI (inactivation): read-out: KI (inhibition constant of inactivation), 10 mM L-ornithine; for KI (inactivation) / kinact/KI / kinact (rate constant of enzyme inactivation): time-dependent inactivators; for KI (inactivation) / kinact (rate constant of enzyme inactivation): pH 8.0, 37° C.; for activity in inactivating TgOAT (in words): summary of Table 1; for Ki: read-out: Ki (reversible inhibition), reversible inhibitors, calculated from the IC50 value.

Another assay deals with GABA-AT. The conditions noted are these: cited from earlier work.
The next assay has as its target T1, human OAT (Homo sapiens, UniProt P04181).
T1 sequence (P04181 36-439 limits assumed): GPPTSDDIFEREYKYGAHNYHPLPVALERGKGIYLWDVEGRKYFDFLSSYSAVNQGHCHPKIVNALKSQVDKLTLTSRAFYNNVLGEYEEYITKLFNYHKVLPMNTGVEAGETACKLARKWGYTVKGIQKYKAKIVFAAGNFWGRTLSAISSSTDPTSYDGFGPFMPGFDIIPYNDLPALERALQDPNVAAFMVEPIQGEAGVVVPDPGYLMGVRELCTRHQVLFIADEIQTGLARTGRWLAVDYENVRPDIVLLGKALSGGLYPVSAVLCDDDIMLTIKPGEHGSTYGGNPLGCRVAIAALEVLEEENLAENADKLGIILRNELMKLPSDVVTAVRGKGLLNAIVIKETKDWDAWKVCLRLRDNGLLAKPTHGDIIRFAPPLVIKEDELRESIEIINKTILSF
The conditions noted are these: cited from earlier work.

For assay [3], the system named is glutamate decarboxylase (GAD). Particulars: cited from earlier work.
Assay [4] concerns aspartate aminotransferase (AspAT). Particulars: cited from earlier work.

In general, kinact/KI refers to the maximal inactivation rate divided by the concentration that gives half of it. Regarding `NC1CC(C(=O)O)CC1=C(Cl)Cl` (stereo not shown) [Compound 5], the “inhibition of tachyzoite replication in vitro” value (shortened to “inhibition”) in assay [1] is given as “no effects on active T. gondii infection”. In addition, the “antimalarial activity in live-cell parasite assay” value (from here on “antimalarial activity”) in assay [2] is “no antimalarial activity”. Further, in the assay on TgOAT, the “selectivity of inactivation, TgOAT versus GABA-AT and human OAT (in words)” value (“selectivity of inactivation” below) is reported as “high specific inactivation towards TgOAT but not GABA-AT or human OAT”; the KI (inactivation) came out at 15 µM; the “activity in inactivating TgOAT (in words)” value is on record as “high activity in inactivating TgOAT”; the kinact/KI turned out to be 4830 M⁻¹ s⁻¹. Further, the “kinact (rate constant of enzyme inactivation)” value on TgOAT was found to be 4.4 min⁻¹. The “activity against GABA-AT (in words)” value in the assay with GABA-AT is “very weak reversible inhibitor”. Moreover, on human OAT, the “activity against human OAT (in words)” value was “very weak reversible inhibitor”.

`NC1CC(C(=O)O)CC1Br` (stereo not shown) [Compound 9]: in the assay on TgOAT, the KI (inactivation) was determined as 2600 µM, the kinact/KI worked out at 31.7 M⁻¹ s⁻¹ and the “kinact (rate constant of enzyme inactivation)” value was found to be 5.0 min⁻¹.

Turning to `NC1C(F)CC(C(=O)O)C1Br` (stereo not shown) [Compound 10], in the assay on TgOAT, the KI (inactivation) was 110 µM, the kinact/KI amounted to 583 M⁻¹ s⁻¹ and the “kinact (rate constant of enzyme inactivation)” value was 3.9 min⁻¹.

As to “gabaculine [Compound 23, reference compound]”, the KI (inactivation) in the assay on TgOAT was found to be 0.82 µM. In addition, the “activity against GABA-AT (in words)” value in the assay with GABA-AT is “equally potent irreversible inhibitor”.

As for `NC1CC(C(=O)O)CC1F` (stereo not shown) [Compound 7], in the assay on TgOAT, the KI (inactivation) came out at 2100 µM, the kinact/KI was 86.7 M⁻¹ s⁻¹ and the “kinact (rate constant of enzyme inactivation)” value amounted to 11 min⁻¹.

As for `NC1CC(C(=O)O)CC1=CC(F)(F)F` (stereo not shown) [Compound 3], in the assay on TgOAT, the KI (inactivation) was determined as 30 µM, the inactivation efficiency (kinact/KI) worked out at 83.3 M⁻¹ s⁻¹ and the “kinact (rate constant of enzyme inactivation)” value is 0.15 min⁻¹.

On to `NC(CF)CCC(=O)O` (stereo not shown) [5-Fluoro-4-aminopentanoic acid, reference compound], for which, in the assay with GABA-AT, the “activity against GABA-AT (in words)” value is on record as “very efficient inactivator”.

By Ki is commonly meant the dissociation constant of the complex between target and ligand, obtained from inhibition or displacement. On to `NCc1cscc1C(=O)O` [Compound 14], for which the Ki on TgOAT was 4200 µM.

Take `NC1CC(C(=O)O)CC1(F)F` (stereo not shown) [Compound 8]: in the assay with TgOAT, the KI (inactivation) came to 130 µM, the kinact/KI worked out at 1000 M⁻¹ s⁻¹ and the “kinact (rate constant of enzyme inactivation)” value stood at 7.8 min⁻¹. The “off-target activity at GAD (in words)” value in assay [3] is “significant”.

For `NC1CC(C(=O)O)C=C1C(F)(F)C(F)(F)F` (stereo not shown) [Compound 6], in the assay with TgOAT, the KI (inactivation) stood at 21 µM, the kinact/KI was determined as 167 M⁻¹ s⁻¹ and the “kinact (rate constant of enzyme inactivation)” value was 0.21 min⁻¹.

Regarding `C[C@@H](F)[C@@H](N)CCC(=O)O` [Compound 12], at TgOAT, the Ki is 2900 µM.

Turning to `NCc1c(CC(=O)O)cccc1C(F)(F)F` [Compound 11], the “inhibition” value in assay [1] was “no effects on active T. gondii infection”. Besides, the “antimalarial activity” value in assay [2] was “no antimalarial activity”. Further, in the assay with TgOAT, the “selectivity of inactivation” value is on record as “high specific inactivation towards TgOAT but not GABA-AT or human OAT”; the KI (inactivation) was 15 µM; the “activity in inactivating TgOAT (in words)” value was “high activity in inactivating TgOAT”; the kinact/KI turned out to be 6000 M⁻¹ s⁻¹. In addition, the “kinact (rate constant of enzyme inactivation)” value at TgOAT was 5.4 min⁻¹. In addition, the “activity against GABA-AT (in words)” value in the assay on GABA-AT is “weak reversible inhibitor”. The “activity against human OAT (in words)” value at human OAT is reported as “weak inactivator”.

As for `NC1CC(C(=O)O)CC1=CC(F)(F)F` (stereo not shown) [Compound 4], in the assay on TgOAT, the KI (inactivation) is 21 µM, the kinact/KI worked out at 183 M⁻¹ s⁻¹ and the “kinact (rate constant of enzyme inactivation)” value is 0.23 min⁻¹.

Take `NC1CC(C(=O)O)CC1=C(C(F)(F)F)C(F)(F)F` (stereo not shown) [Compound 2]: the “inhibition” value in assay [1] is “no effects on active T. gondii infection”. Besides, the “antimalarial activity” value in assay [2] is “no antimalarial activity”. Besides, in the assay on TgOAT, the KI (inactivation) was determined as 4.8 µM, the “activity in inactivating TgOAT (in words)” value is “high activity in inactivating TgOAT”, the kinact/KI turned out to be 15300 M⁻¹ s⁻¹ and the “kinact (rate constant of enzyme inactivation)” value worked out at 4.4 min⁻¹. Also, the “activity against GABA-AT (in words)” value in the assay on GABA-AT is “weak reversible inhibitor”. Moreover, the “activity against human OAT (in words)” value at human OAT is “highly potent inactivator”.

Consider `NCc1c[nH]c(C(=O)O)c1` [Compound 17], for which the Ki at TgOAT was above 5000 µM.

As for `N[C@H](CF)CCC(=O)O` [Compound 18, (S)-4-amino-5-fluoropentanoic acid], the “inhibition” value in assay [1] is reported as “no effects on active T. gondii infection”. The “antimalarial activity” value in assay [2] is listed as “no antimalarial activity”. Further, in the assay with TgOAT, the “selectivity of inactivation” value was “high specific inactivation towards TgOAT but not GABA-AT or human OAT”; the KI (inactivation) was 4.6 µM; the “activity in inactivating TgOAT (in words)” value is on record as “high activity in inactivating TgOAT”; the kinact/KI was 36670 M⁻¹ s⁻¹. In addition, the “kinact (rate constant of enzyme inactivation)” value at TgOAT worked out at 10 min⁻¹. Further, the “activity against GABA-AT (in words)” value in the assay on GABA-AT was “moderate inactivator”. At human OAT, the “activity against human OAT (in words)” value was “moderate inactivator”.

On to `C=CC(N)CCC(=O)O` (stereo not shown) [Compound 22, 4-am inohex-5-enoic acid, reference compound], for which, in the assay with TgOAT, the KI (inactivation) amounted to 440 µM, the kinact/KI is 383 M⁻¹ s⁻¹ and the “kinact (rate constant of enzyme inactivation)” value amounted to 9.9 min⁻¹. The “off-target activity at GAD (in words)” value in assay [3] was “no activity”. In addition, the “off-target activity at AspAT (in words)” value in assay [4] was “weakly affects”.

As for `NCc1cocc1C(=O)O` [Compound 13], the Ki on TgOAT is above 5000 µM.

Consider `NCc1csc(C(=O)O)c1` [Compound 15], for which, at TgOAT, the Ki was 4900 µM.

On to `NCc1ccc(C(=O)O)s1` [Compound 16], for which the Ki on TgOAT was above 5000 µM.

As for `N[C@H]1C[C@@H](C(=O)O)CC1=C(F)F` [Compound 1], the “inhibition” value in assay [1] was “no effects on active T. gondii infection”. In addition, in assay [2], the “antimalarial activity” value is on record as “no antimalarial activity”. Also, in the assay on TgOAT, the KI (inactivation) was found to be 4.4 µM, the “activity in inactivating TgOAT (in words)” value was “high activity in inactivating TgOAT”, the kinact/KI was found to be 41670 M⁻¹ s⁻¹ and the “kinact (rate constant of enzyme inactivation)” value amounted to 11 min⁻¹. The “activity against GABA-AT (in words)” value in the assay with GABA-AT is on record as “extremely potent inactivator”. Also, on human OAT, the “activity against human OAT (in words)” value is given as “potent inactivator”.
